Results: patent US20210085582A1, “SYNERGISTIC ANTIOXIDANT ACID COMPOUND ASSOCIATIONS” (L'OREAL, priority 2019, published 2021)

Test: oxygen radical absorbance capacity (ORAC) assay, antioxidant (AOX) strength testing
Conditions: 0.5% ferulic acid, 0.5% salicylic acid
Text: The peroxyl radical, generated from the thermal decomposition of 2,2'-azobis-2-methyl-propanimidamide dihydrochloride (AAPH), will quench a fluorescent probe by a hydrogen atom transfer reaction. In the presence of an antioxidant, however, the molecule will initially block or prevent the quenching of the probe, causing a delay in the fluorescence decay profile. The area under the fluorescence decay curves for samples with and without the presence of an antioxidant are compared to that of a standard reference material and the peroxyl radical antioxidant capacity is determined. References disclosing ORAC assays include Cao G, Alessio H, Cutler R (1993). “Oxygen-radical absorbance capacity assay for antioxidants”. Free Radic Biol Med 14 (3): 303-11; Ou B, Hampsch-Woodill M, Prior R (2001). “Development and validation of an improved oxygen radical absorbance capacity assay using fluorescein as the fluorescent probe”. J Agric Food Chem 49 (10): 4619-26; Huang D, Ou B, Prior R (2005). “The chemistry behind antioxidant capacity assays”. J. Agric. Food Chem. 53 (6): 1841-56; and Garrett A R, Murray B K, Robison […] (2010). “Measuring antioxidant capacity using the ORAC and TOSC assays”. Advanced Protocols in Oxidative Stress II: Methods in Molecular Biology (series), Donald J Armstrong (ed) 594: 251-62.

SMILES | effect on overall antioxidant capacity of the association (1% gallic acid added to 15% ascorbic acid) | effect on overall antioxidant capacity of the association (5% gallic acid added to 15% ascorbic acid) | contribution to antioxidant potential of the association (Zinc PCA 0.5% added to compositions with 15% ascorbic acid)
O=C(O)c1cc(O)c(O)c(O)c1 [gallic acid, 3,4,5-trihydroxybenzoic acid] | modest | significant | 
O=C1CC[C@@H](C(=O)[O-])N1.O=C1CC[C@@H](C(=O)[O-])N1.[Zn+2] [Zinc PCA] |  |  | not found to be a contributing factor
